Earlier results in patent US7476499B2 (priority 2006, dated 2009).

Tested on: poliovirus virions

Cc1cc(CCCCCCCOc2ccc(C3=NCCO3)cc2)on1 [WIN-51711, Disoxaril]
mode of action on poliovirus: prevents the uncoating of the viral genome after viral cell entry
